US8778966B2, “Quinolinone derivatives as PARP and tank inhibitors” (Janssen Pharmaceutica, NV, priority 2007, dated 2014)

Key:
Assay type in all cases: cell-based, human
PC-3 cells = experiment: Antiproliferative activity, Alamar Blue assay, PC-3 cells; settings: for IC50: Homo sapiens, PC-3, PC3 cells, read-out: PC3 antiproliferative activity pIC50 (converted)
Method in brief: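 Resazurin-based fluorescence (540 nm ex/590 nm em) measured after 4-day compound treatment plus 24 hrs dye incubation at 37° C. Cells plated at 4.5×10^3 cells/ml, adhered 24 hr first. pIC50 from probit-derived IC50 on % viable cells versus untreated, triplicate wells.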

HCT116 cells [1] = experiment: Antiproliferative activity, Alamar Blue assay, HCT116 cells; set-up: key to HCT116 antiproliferative activity pIC50: pIC50 = -log IC50 (IC50: conc. reducing growth to 50% of control); settings: for IC50: Homo sapiens, HCT-116, HCT116 cells, read-out: HCT116 antiproliferative activity pIC50 (converted)
Method in brief: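 Readout is resazurin fluorescence (ex 540, em 590 nm) after a 4 h dye incubation at 37 °C, following 4-day compound treatment of HCT116 cells plated 24 h earlier. Results expressed as % viable cells versus untreated; pIC50 derived from probit-fitted IC50.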

HCT116 cells [2] = experiment: Mitotic arrest assay on HCT116 cells (phospho-histone H3 Ser10); settings: lowest active dose; for minimal effective concentration: Homo sapiens, HCT-116, HCT116 cells, read-out: Mitotic arrest HCT116 LAD (converted); for Mitotic arrest HCT116 LAD: HCT116 cells, the values are: pLAD (−log M lowest active dose)
Description: Phosphorylation of histone H3 is tightly correlated with chromosome condensation during both mitosis and meiosis. The assay is a cellular immunosorbent assay wherein the sole antibody is labelled with a detectable conjugate. The phospho-histone H3 (ser10) antibody detects endogenous levels of histone H3 only when phosphorylated at serine 10. […] In parallel with antibody detection, the nuclei of the cells are stained with Hoechst 33342 for cell-counting. Cells are detected and analysed using the InCell Analyzer 1000 from GE Healthcare. Since both the antibody-detection as well as the Hoechst-staining are in the nucleus, the dual area object intensity algorithm is used for analysing the wells.
All compounds tested were dissolved in DMSO and further dilutions were made in culture medium. Final DMSO concentrations never exceeded 0.1% (v/v).
HCT116 cells (supplier: ATCC) (human colon carcinoma cell line) were cultivated in Mc Coy's 5 A medium (supplier: Gibco) supplemented with 10% foetal calf serum (FCS), 2 mM L-glutamine and gentamycin at 37° C. in a humidified incubator with 5% CO2.
HCT116 cells were seeded at 20.000 cells per well in a 96 well plate (black/clear bottom, poly-D-lysine coated, supplier Greiner), cultured overnight to adhere to the bottom of the plate and treated with compound for 6 hours at 37° C. in a humidified incubator. After incubation, the medium was removed and cells were fixed using 100 μl/well formaldehyde (Accustain®, Formaline solution 10% neutral buffered, contains 4% formaldehyde w/v, supplier: Sigma) was added. After incubation for 15 minutes at room temperature, the formaldehyde was removed and cells were incubated with methanol (−20° C.) for 15 minutes at room temperature. After incubation, cells were washed once with phosphate-buffered saline (PBS —CaCl2, —MgCl2, suppier: Gibco)/0.05% Tween 20. The anti-phospho-histone H3 (Ser10) Alexa Fluor 488 antibody (supplier: Cell signalling) is used for detection of the cells inmitosis. The antibody was diluted 1/50 in 5% bovine serum albumins (BSA) and 50 μl/well was used for incubation overnight at room temperature in the dark.
A 1/2000 dilution of Hoechtst 33342 (10 mg/ml, supplier: Invitrogen) was made and 100 μl/well was added for at least 30 minutes before acquiring images. The absorbance at dual wavelengths of 360/480 nm was measured using the InCell Analyzer 1000 from GE Healthcare and the results were then analyzed.
For each experiment, controls (containing no drug) and a blank incubation (containing no cells or drugs) were run in parallel. Analysis was done in triplicate. Low cell count wells were invalidated. The blank value was subtracted from all control and sample values and divided by the standard deviation of the measurements. The compounds were considered active when the obtained value (sigma) was >5. Herein the effects of test compounds are expressed as the lowest dose giving a sigma value of >5 (LAD) (see table F-2).

## CCc1cc2ccc(C(C)(C#N)Cc3cc(F)cc(Cl)c3)cc2[nH]c1=O (stereo not drawn) [Compound 126]
PC-3 cells
  IC50: 0.2 µM
HCT116 cells [1]
  IC50: 0.2 µM
HCT116 cells [2]
  minimal effective concentration: 0.1 µM

## CCc1cc2ccc(C(C)(C#N)Cc3cccc(F)c3)cc2[nH]c1=O (stereo not drawn) [Compound 112]
PC-3 cells
  IC50: 0.398 µM
HCT116 cells [1]
  IC50: 0.316 µM
HCT116 cells [2]
  minimal effective concentration: 0.316 µM

## CCc1cc2ccc(C(C)(C#N)Cc3cccc(C(=O)O)c3)cc2[nH]c1=O (stereo not drawn) [Compound 10]
PC-3 cells
  IC50: > 10 µM
HCT116 cells [1]
  IC50: > 10 µM
HCT116 cells [2]
  minimal effective concentration: 10 µM

## CCc1cc2ccc(C(C)(C#N)Cc3cc(C(F)(F)F)cc(C(F)(F)F)c3)cc2[nH]c1=O (stereo not drawn) [Compound 131]
PC-3 cells
  IC50: > 10 µM
HCT116 cells [1]
  IC50: 6.31 µM
HCT116 cells [2]
  minimal effective concentration: 3.16 µM

## CCc1cc2ccc(C(C)(C#N)Cc3cc(C)cc(C)c3)cc2[nH]c1=O (stereo not drawn) [Compound 125]
PC-3 cells
  IC50: 0.251 µM
HCT116 cells [1]
  IC50: 0.2 µM
HCT116 cells [2]
  minimal effective concentration: 0.1 µM

## CCc1cc2ccc(C(C)(C#N)CCOc3ccc4oc(C)c(C)c4c3)cc2[nH]c1=O (stereo not drawn) [Compound 162]
PC-3 cells
  IC50: > 10 µM
HCT116 cells [1]
  IC50: > 10 µM
HCT116 cells [2]
  minimal effective concentration: 3.16 µM

## CCc1cc2ccc(C(C)(C#N)Cc3ccc4ccccc4c3)cc2[nH]c1=O (stereo not drawn) [Compound 122]
PC-3 cells
  IC50: 0.398 µM
HCT116 cells [1]
  IC50: 0.251 µM
HCT116 cells [2]
  minimal effective concentration: 0.316 µM

## CCc1cc2ccc(C(C)(C#N)Cc3cccc(Cl)c3Cl)cc2[nH]c1=O (stereo not drawn) [Compound 121]
PC-3 cells
  IC50: 0.631 µM
HCT116 cells [1]
  IC50: 0.158 µM
HCT116 cells [2]
  minimal effective concentration: 0.316 µM

## CCOc1ccccc1OCCC(C)(C#N)c1ccc2cc(CC)c(=O)[nH]c2c1 (stereo not drawn) [Compound 142]
PC-3 cells
  IC50: 0.316 µM
HCT116 cells [1]
  IC50: 0.316 µM
HCT116 cells [2]
  minimal effective concentration: 0.316 µM

## CCc1cc2ccc(C(C)(C#N)Cc3ccc(Br)cc3)cc2[nH]c1=O (stereo not drawn) [Compound 118]
PC-3 cells
  IC50: 1.26 µM
HCT116 cells [1]
  IC50: 2 µM
HCT116 cells [2]
  minimal effective concentration: 1 µM

## CCc1cc2ccc(C(C)(C#N)CC3CN(C)c4ccccc4O3)cc2[nH]c1=O (stereo not drawn) [Compound 156]
PC-3 cells
  IC50: 2.51 µM
HCT116 cells [1]
  IC50: 2 µM
HCT116 cells [2]
  minimal effective concentration: 0.316 µM

## CCc1cc2ccc(C(C)(C#N)CCOc3ccc(OC)cc3)cc2[nH]c1=O (stereo not drawn) [Compound 147]
PC-3 cells
  IC50: 0.794 µM
HCT116 cells [1]
  IC50: 0.501 µM
HCT116 cells [2]
  minimal effective concentration: 0.316 µM

## CCc1cc2ccc(C(C)(C#N)CCOc3ccc(C)cc3)cc2[nH]c1=O (stereo not drawn) [Compound 149]
PC-3 cells
  IC50: 1 µM
HCT116 cells [1]
  IC50: 0.631 µM
HCT116 cells [2]
  minimal effective concentration: 0.316 µM

## CCc1cc2ccc(C(C)(C#N)CCOc3ccccc3C)cc2[nH]c1=O (stereo not drawn) [Compound 148]
PC-3 cells
  IC50: 0.794 µM
HCT116 cells [1]
  IC50: 0.316 µM
HCT116 cells [2]
  minimal effective concentration: 0.316 µM

## CCc1cc2ccc(C(C)(C#N)Cc3ccc(F)cc3)cc2[nH]c1=O (stereo not drawn) [Compound 115]
PC-3 cells
  IC50: 0.631 µM
HCT116 cells [1]
  IC50: 0.631 µM
HCT116 cells [2]
  minimal effective concentration: 0.316 µM

## CCc1cc2ccc(C(C)(C#N)Cc3ccccc3Br)cc2[nH]c1=O (stereo not drawn) [Compound 104]
PC-3 cells
  IC50: 1 µM
HCT116 cells [1]
  IC50: 0.398 µM
HCT116 cells [2]
  minimal effective concentration: 0.316 µM

## CCc1cc2ccc(C(C)(C#N)CCOc3ccccc3Br)cc2[nH]c1=O (stereo not drawn) [Compound 153]
PC-3 cells
  IC50: 0.631 µM
HCT116 cells [1]
  IC50: 0.2 µM
HCT116 cells [2]
  minimal effective concentration: 0.316 µM

## CCc1cc2ccc(C(C)(C#N)Cc3ccc(F)cc3Br)cc2[nH]c1=O (stereo not drawn) [Compound 139]
PC-3 cells
  IC50: 0.794 µM
HCT116 cells [1]
  IC50: 0.126 µM
HCT116 cells [2]
  minimal effective concentration: 0.1 µM

## CCc1cc2ccc(C(C)(C#N)CCOc3cccc4c3OCCO4)cc2[nH]c1=O (stereo not drawn) [Compound 163]
PC-3 cells
  IC50: 1 µM
HCT116 cells [1]
  IC50: 0.398 µM
HCT116 cells [2]
  minimal effective concentration: 1 µM

## CCc1cc2ccc(C(C)(C#N)Cc3cccc(C(F)(F)F)c3)cc2[nH]c1=O (stereo not drawn) [Compound 109]
PC-3 cells
  IC50: 0.631 µM
HCT116 cells [1]
  IC50: 0.251 µM
HCT116 cells [2]
  minimal effective concentration: 0.316 µM

## CCc1cc2ccc(C(C)(C#N)Cc3cccc(OC(F)(F)F)c3)cc2[nH]c1=O (stereo not drawn) [Compound 110]
PC-3 cells
  IC50: 0.2 µM
HCT116 cells [1]
  IC50: 0.158 µM
HCT116 cells [2]
  minimal effective concentration: 0.316 µM

## CCc1cc2ccc(C(C)(C#N)Cc3cccc(C(F)(F)F)c3F)cc2[nH]c1=O (stereo not drawn) [Compound 134]
PC-3 cells
  IC50: 1 µM
HCT116 cells [1]
  IC50: 0.501 µM
HCT116 cells [2]
  minimal effective concentration: 0.316 µM

## CCc1cc2ccc(C(C)(C#N)CCOc3ccccc3C(C)=O)cc2[nH]c1=O (stereo not drawn) [Compound 159]
PC-3 cells
  IC50: > 10 µM
HCT116 cells [1]
  IC50: > 10 µM
HCT116 cells [2]
  minimal effective concentration: 3.16 µM

## CCc1cc2ccc(C(C)(C#N)Cc3cccc(C)c3)cc2[nH]c1=O (stereo not drawn) [Compound 107]
PC-3 cells
  IC50: 0.251 µM
HCT116 cells [1]
  IC50: 0.2 µM
HCT116 cells [2]
  minimal effective concentration: 0.316 µM

## CCc1cc2ccc(C(C)(C#N)Cc3ccccc3F)cc2[nH]c1=O (stereo not drawn) [Compound 106]
PC-3 cells
  IC50: 0.794 µM
HCT116 cells [1]
  IC50: 0.398 µM
HCT116 cells [2]
  minimal effective concentration: 0.1 µM

## CCc1cc2ccc(C(C)(C#N)Cc3cccc(OC)c3)cc2[nH]c1=O (stereo not drawn) [Compound 113]
PC-3 cells
  IC50: 0.251 µM
HCT116 cells [1]
  IC50: 0.398 µM
HCT116 cells [2]
  minimal effective concentration: 0.316 µM

## CCc1cc2ccc(C(C)(C#N)CCOc3ccc(F)cc3)cc2[nH]c1=O (stereo not drawn) [Compound 144]
PC-3 cells
  IC50: 0.631 µM
HCT116 cells [1]
  IC50: 0.501 µM
HCT116 cells [2]
  minimal effective concentration: 0.316 µM

## CCc1cc2ccc(C(C)(C#N)Cc3cccc(NC(=O)N4CCOCC4)c3)cc2[nH]c1=O (stereo not drawn) [Compound 16]
PC-3 cells
  IC50: > 10 µM
HCT116 cells [1]
  IC50: > 10 µM
HCT116 cells [2]
  minimal effective concentration: 10 µM

## CCc1cc2ccc(C(C)(C#N)Cc3cccc(CCC#N)c3)cc2[nH]c1=O (stereo not drawn) [Compound 165]
PC-3 cells
  IC50: 1 µM
HCT116 cells [1]
  IC50: 0.631 µM
HCT116 cells [2]
  Mitotic arrest HCT116 LAD: 6.5

## CCc1cc2ccc(C(C)(C#N)Cc3cccc(Cl)c3)cc2[nH]c1=O (stereo not drawn) [Compound 140]
PC-3 cells
  IC50: 0.631 µM
HCT116 cells [1]
  IC50: 0.2 µM
HCT116 cells [2]
  minimal effective concentration: 0.316 µM

## CCc1cc2ccc(C(C)(C#N)CC3COc4ccccc4O3)cc2[nH]c1=O (single isomer, unassigned) [Compound 48]
PC-3 cells; PC3 cells
  PC3 antiproliferative activity pIC50: 5.4
HCT116 cells [1]; HCT116 cells
  HCT116 antiproliferative activity pIC50: 5.8
HCT116 cells [2]
  Mitotic arrest HCT116 LAD: 6.5

## CCc1cc2ccc(C(C)(C#N)CCOc3cccc(Cl)c3)cc2[nH]c1=O (stereo not drawn) [Compound 151]
PC-3 cells
  IC50: 2 µM
HCT116 cells [1]
  IC50: 0.631 µM
HCT116 cells [2]
  minimal effective concentration: 0.316 µM

## CCc1cc2ccc(C(C)(C#N)Cc3cccc(C)c3F)cc2[nH]c1=O (stereo not drawn) [Compound 132]
PC-3 cells
  IC50: 0.631 µM
HCT116 cells [1]
  IC50: 0.398 µM
HCT116 cells [2]
  minimal effective concentration: 0.1 µM

## CCc1cc2ccc(C(C)(C#N)Cc3ccc(F)cc3F)cc2[nH]c1=O (stereo not drawn) [Compound 137]
PC-3 cells
  IC50: 0.794 µM
HCT116 cells [1]
  IC50: 0.251 µM
HCT116 cells [2]
  minimal effective concentration: 0.316 µM
